Experimental data: patent US20250163104A1, “MACROCYCLIC IMMUNOMODULATORS” (priority 2021, published 2025)
*1 amine or outer side, *2 acyl side, *3 side chain or, on linkers, in order; H or OH if unused. Where a SMILES comes first, the peptide text is derived from it. Bridges are numbered along the chain shown (N, C = ends). [ ]: non-standard residue; d: D form. The star is where a group is joined. ξ: configuration not given here. Phe(4-COOH) = N[C@@H](Cc1ccc(C(=O)O)cc1)C(=O)O; Phe(3,4-F2) = N[C@@H](Cc1ccc(F)c(F)c1)C(=O)O; X5 = O=C([C@H](Cc1ccc2ncccc2c1)N[*:1])[*:2]; Bip = N[C@@H](Cc1ccc(-c2ccccc2)cc1)C(=O)O; Phe(3-Me) = Cc1cccc(C[C@H](N)C(=O)O)c1; Val(3-OH) = CC(C)(O)[C@H](N)C(=O)O; 4Pal = N[C@@H](Cc1ccncc1)C(=O)O; Cha = N[C@@H](CC1CCCCC1)C(=O)O; Ile(3ξ) = CCC(C)[C@H](N)C(=O)O; Thr(3ξ) = CC(O)[C@H](N)C(=O)O; dNle = CCCC[C@@H](N)C(=O)O; dDab = NCC[C@@H](N)C(=O)O; Carboxymethyl = O=C(O)C*; Orn = NCCC[C@H](N)C(=O)O; Pra = C#CC[C@H](N)C(=O)O; Dab = NCC[C@H](N)C(=O)O; Dap = NC[C@H](N)C(=O)O

What follows are compounds tested against T1, human PD-1 / PD-L1-Ig binding on Jurkat cell line over-expressing human PD-1 (Jurkat-PD-1) (Homo sapiens, UniProt Q15116) (assay: Jurkat-PD-1 Cell Binding High-Content Screening Assay (CBA)). Details: Jurkat HPD1_PDL1 IC50, Jurkat-PD-1 cells, PE-labeled PD-L1-Ig 20 nM final.
T1 construct: expressed in transfected cells; host or cells: Jurkat
Assay type: cell-based
Method in brief: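 PE-PD-L1-Ig 20 nM final; cells in DMEM/10% FCS; cpd pre-incubation 2 h, 37° C; ligand 1 h; PFA fix + Hoechst 33342; high-content imaging read-out.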

T1 sequence (Q15116 25-288): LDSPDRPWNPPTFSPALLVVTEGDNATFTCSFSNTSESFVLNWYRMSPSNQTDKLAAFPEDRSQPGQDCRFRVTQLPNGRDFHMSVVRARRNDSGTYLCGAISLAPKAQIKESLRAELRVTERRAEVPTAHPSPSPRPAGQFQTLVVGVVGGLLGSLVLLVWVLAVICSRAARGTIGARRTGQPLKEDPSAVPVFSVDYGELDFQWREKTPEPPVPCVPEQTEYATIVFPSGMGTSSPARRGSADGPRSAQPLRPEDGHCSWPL

| Compound | IC50 [nM] |
| --- | --- |
| CC(C)C[C@@H]1NC(=O)[C@H](Cc2c[nH]c3ccccc23)NC(=O)[C@H](CC(=O)O)NC(=O)[C@H](Cc2ccc(O)cc2)NC(=O)[C@H](Cc2ccccc2)NC(=O)CSC[C@@H](C(=O)NCC(N)=O)NC(=O)[C@H]([C@@H](C)O)NC(=O)[C@H](C(C)C)NC(=O)[C@H](CC(C)C)NC(=O)[C@H](CC(N)=O)NC(=O)[C@@H](C)NC(=O)[C@H](CCN)NC(=O)[C@H](C(C)C)NC(=O)[C@H](Cc2ccc(-c3ccccc3)cc2)NC1=O [Compound 1099] ({CH2CO}-FYDWL[Bip]V[Dab][dA]NLVTCG-NH2; thioether N-14) | 84.5 |
| CCC(C)[C@@H]1NC(=O)[C@H](Cc2ccc(-c3ccccc3)cc2)NC(=O)[C@H](CC(C)C)NC(=O)[C@H](Cc2cccc(C)c2)NC(=O)[C@H](CC(=O)O)NC(=O)[C@H](Cc2ccc(C(=O)O)cc2)NC(=O)[C@H](Cc2ccncc2)NC(=O)CSC[C@@H](C(=O)N[C@H](C)C(N)=O)NC(=O)[C@H](C(C)O)NC(=O)[C@H](C(C)C)NC(=O)[C@H](CC2CCCCC2)NC(=O)[C@H](CCN)NC(=O)[C@@H](CC(C)C)NC(=O)[C@H](Cc2cnc[nH]2)NC1=O (stereo partly drawn) [Compound 2611] ({CH2CO}-[4Pal][Phe(4-COOH)]D[Phe(3-Me)]L[Bip][Ile(3ξ)]H[dL][Dab][Cha]V[Thr(3ξ)]C[dA]-NH2; thioether N-14) | 19.2 |
| CC(C)C[C@H]1NC(=O)[C@H](CCCN)NC(=O)[C@H](C(C)C)NC(=O)[C@H](Cc2ccc(-c3ccccc3)cc2)NC(=O)[C@H](C(C)C)NC(=O)[C@H](Cc2c[nH]c3ccccc23)NC(=O)[C@H](CC(=O)O)NC(=O)[C@H](Cc2ccc(OCC(=O)O)cc2)NC(=O)[C@H](Cc2ccc(OCc3ccccc3)cc2)NC(=O)CSC[C@@H](C(=O)N[C@@H](C)C(N)=O)NC(=O)[C@H]([C@@H](C)O)NC(=O)[C@H](C(C)C)NC(=O)[C@H](CC2CCCCC2)NC(=O)[C@H](CCN)NC1=O [Compound 1527] | 103 |

Same assay, conditions: Jurkat-PD-1 cells, PE-labeled PD-L1-Ig 20 nM final; read-out: Jurkat HPD1_PDL1 IC50

| Compound | IC50 [nM] |
| --- | --- |
| CC(C)C[C@H]1NC(=O)[C@H](CCCN)NC(=O)[C@H](CCC(=O)O)NC(=O)[C@H](Cc2ccc(-c3ccccc3)cc2)NC(=O)[C@H](C(C)C)NC(=O)[C@H](Cc2c[nH]c3ccccc23)NC(=O)[C@H](CC(=O)O)NC(=O)[C@H](Cc2ccc3ncccc3c2)NC(=O)[C@H](Cc2ccccc2)NC(=O)CSC[C@@H](C(=O)N[C@@H](C)C(N)=O)NC(=O)[C@H]([C@@H](C)O)NC(=O)[C@H](C(C)C)NC(=O)[C@H](CC2CCCCC2)NC(=O)[C@H](CCN)NC1=O [Compound 2176] ({CH2CO}-F[X5]DWV[Bip]E[Orn][dL][Dab][Cha]VTCA-NH2; thioether N-14) | 111 |
| CCC(C)[C@@H]1NC(=O)[C@H](Cc2ccc(-c3ccccc3)cc2)NC(=O)[C@H](C(C)C)NC(=O)[C@H](Cc2cccc(C)c2)NC(=O)[C@H](CC(=O)O)NC(=O)[C@H](Cc2ccc(C(=O)O)cc2)NC(=O)[C@H](Cc2ccncc2)NC(=O)CSC[C@@H](C(=O)N[C@@H](CC(N)=O)C(N)=O)NC(=O)[C@H]([C@@H](C)O)NC(=O)[C@H](C(C)C)NC(=O)[C@H](CC2CCCCC2)NC(=O)[C@H](CCN)NC(=O)[C@@H](CC(C)C)NC(=O)[C@H](CCCN)NC1=O (stereo partly drawn) [Compound 2299] | 14.4 |
| C#CC[C@H](NC(=O)[C@H](CCN)NC(=O)[C@@H]1CSCC(=O)N[C@@H](CCCN)C(=O)N[C@@H](Cc2ccc(OCC(=O)O)cc2)C(=O)N[C@@H](CC(=O)O)C(=O)N[C@@H](Cc2cccc(C)c2)C(=O)N[C@@H](Cc2ccc(OCC(=O)O)cc2)C(=O)N[C@@H](Cc2ccc(-c3ccccc3)cc2)C(=O)N[C@@H](Cc2ccc(OCC(=O)O)cc2)C(=O)N[C@@H](CCCN)C(=O)N[C@H](CC(C)C)C(=O)N[C@@H](CCN)C(=O)N[C@@H](CC2CCCCC2)C(=O)N[C@@H](C(C)(C)O)C(=O)N[C@@H](CO)C(=O)N1)C(N)=O [Compound 1853] ({CH2CO}-[Orn]Y(Carboxymethyl)D[Phe(3-Me)]Y(Carboxymethyl)[Bip]Y(Carboxymethyl)[Orn][dL][Dab][Cha][Val(3-OH)]SC[Dab][Pra]-NH2; thioether N-14) | 6.9 |
| CC(C)C[C@@H]1NC(=O)[C@H](Cc2c[nH]c3ccccc23)NC(=O)[C@H](CC(=O)O)NC(=O)[C@H](Cc2ccncc2)NC(=O)[C@H](Cc2ccc(OCC(=O)O)cc2)NC(=O)CSC[C@@H](C(=O)NCC(N)=O)NC(=O)[C@H](CO)NC(=O)[C@H](C(C)C)NC(=O)[C@H](CC2CCCCC2)NC(=O)[C@H](CC(N)=O)NC(=O)[C@@H](CC(C)C)NC(=O)[C@H](CN)NC(=O)[C@H](C(C)C)NC(=O)[C@H](Cc2ccc(-c3ccccc3)cc2)NC1=O [Compound 1396] ({CH2CO}-Y(Carboxymethyl)[4Pal]DWL[Bip]V[Dap][dL]N[Cha]VSCG-NH2; thioether N-14) | 21.4 |
| CCCC[C@H]1NC(=O)[C@H](CCCN)NC(=O)[C@H](CCC(=O)O)NC(=O)[C@H](Cc2ccc(-c3ccccc3)cc2)NC(=O)[C@H](C(C)C)NC(=O)[C@H](Cc2c[nH]c3ccccc23)NC(=O)[C@H](CC(=O)O)NC(=O)[C@H](Cc2ccncc2)NC(=O)[C@H](Cc2ccc(OCC(=O)O)cc2)NC(=O)CSC[C@@H](C(=O)N[C@@H](C)C(N)=O)NC(=O)[C@H]([C@@H](C)O)NC(=O)[C@H](C(C)C)NC(=O)[C@H](CC2CCCCC2)NC(=O)[C@H](CCN)NC1=O [Compound 1451] ({CH2CO}-Y(Carboxymethyl)[4Pal]DWV[Bip]E[Orn][dNle][Dab][Cha]VTCA-NH2; thioether N-14) | 10.3 |
| Cc1cccc(C[C@@H]2NC(=O)[C@H](CC(=O)O)NC(=O)[C@H](Cc3ccc(O)cc3)NC(=O)[C@H](Cc3cnc[nH]3)NC(=O)CSC[C@@H](C(=O)N[C@H](C)C(N)=O)NC(=O)[C@H](CO)NC(=O)[C@H](C(C)(C)O)NC(=O)[C@H](CC3CCCCC3)NC(=O)[C@H](CCN)NC(=O)[C@@H](CC(C)C)NC(=O)[C@H](CCCN)NC(=O)[C@H](Cc3ccc(OCC(=O)O)cc3)NC(=O)[C@H](Cc3ccc(-c4ccccc4)cc3)NC(=O)[C@H](Cc3ccc(OCC(=O)O)cc3)NC2=O)c1 [Compound 2652] ({CH2CO}-HYD[Phe(3-Me)]Y(Carboxymethyl)[Bip]Y(Carboxymethyl)[Orn][dL][Dab][Cha][Val(3-OH)]SC[dA]-NH2; thioether N-14) | 29.6 |

Now from value to compound:

| IC50 [nM] | Compound |
| --- | --- |
| 6.8 | Cc1cccc(C[C@@H]2NC(=O)[C@H](CC(=O)O)NC(=O)[C@H](Cc3ccncc3)NC(=O)[C@H](Cc3ccc(OCC(=O)O)cc3)NC(=O)CSC[C@@H](C(=O)N[C@@H](C)C(N)=O)NC(=O)[C@H]([C@@H](C)O)NC(=O)[C@H](C(C)C)NC(=O)[C@H](CC3CCCCC3)NC(=O)[C@H](CCN)NC(=O)[C@@H](CC(C)C)NC(=O)[C@H](CCCN)NC(=O)[C@H](C(C)C)NC(=O)[C@H](Cc3ccc(-c4ccccc4)cc3)NC(=O)[C@H](C(C)C)NC2=O)c1 [Compound 1329] ({CH2CO}-Y(Carboxymethyl)[4Pal]D[Phe(3-Me)]V[Bip]V[Orn][dL][Dab][Cha]VTCA-NH2; thioether N-14) |
| 9 | CC[C@H](C)[C@@H]1NC(=O)[C@H](Cc2ccc(-c3ccccc3)cc2)NC(=O)[C@H](C(C)C)NC(=O)[C@H](Cc2c[nH]c3ccccc23)NC(=O)[C@H](CC(=O)O)NC(=O)[C@H](Cc2ccc(OCC(=O)O)cc2)NC(=O)[C@H](CN)NC(=O)CSC[C@@H](C(=O)N[C@@H](C)C(N)=O)NC(=O)[C@H]([C@@H](C)O)NC(=O)[C@H](C(C)C)NC(=O)[C@H](CC(C)C)NC(=O)[C@H](CCN)NC(=O)[C@@H](CC(C)C)NC(=O)[C@H](CCCN)NC1=O [Compound 1054] ({CH2CO}-[Dap]Y(Carboxymethyl)DWV[Bip]I[Orn][dL][Dab]LVTCA-NH2; thioether N-14) |
| 4.6 | CC(C)C[C@@H]1NC(=O)[C@H](CCN)NC(=O)[C@@H](CC(C)C)NC(=O)[C@@H](CCN)NC(=O)[C@H](C(C)C)NC(=O)[C@H](Cc2ccc(-c3ccccc3)cc2)NC(=O)[C@H](C(C)C)NC(=O)[C@H](Cc2c[nH]c3ccccc23)NC(=O)[C@H](CC(=O)O)NC(=O)[C@H](Cc2ccc(O)cc2)NC(=O)[C@H](CC(N)=O)NC(=O)CSC[C@@H](C(=O)N[C@@H](C)C(N)=O)NC(=O)[C@H]([C@@H](C)O)NC(=O)[C@H](C(C)C)NC1=O [Compound 1023] ({CH2CO}-NYDWV[Bip]V[dDab][dL][Dab]LVTCA-NH2; thioether N-14) |
| 104 | CC(C)C[C@H]1NC(=O)[C@H](CCCN)NC(=O)[C@H](CCC(=O)O)NC(=O)[C@H](Cc2ccc(-c3ccccc3)cc2)NC(=O)[C@H](C(C)C)NC(=O)[C@H](Cc2c[nH]c3ccccc23)NC(=O)[C@H](CC(=O)O)NC(=O)[C@H](Cc2ccc(OCC(=O)O)cc2)NC(=O)[C@H](CN)NC(=O)CSC[C@@H](C(=O)N[C@@H](C)C(N)=O)NC(=O)[C@H]([C@@H](C)O)NC(=O)[C@H](C(C)C)NC(=O)[C@H](Cc2ccc(F)c(F)c2)NC(=O)[C@H](CCN)NC1=O [Compound 1482] ({CH2CO}-[Dap]Y(Carboxymethyl)DWV[Bip]E[Orn][dL][Dab][Phe(3,4-F2)]VTCA-NH2; thioether N-14) |
| 8 | CC(C)C[C@@H]1NC(=O)[C@H](Cc2c[nH]c3ccccc23)NC(=O)[C@H](CC(=O)O)NC(=O)[C@H](Cc2ccncc2)NC(=O)[C@H](Cc2ccc(OCC(=O)O)cc2)NC(=O)CSC[C@@H](C(=O)NCC(N)=O)NC(=O)[C@H](CO)NC(=O)[C@H](C(C)C)NC(=O)[C@H](CC(C)C)NC(=O)[C@H](CCN)NC(=O)[C@@H](CC(C)C)NC(=O)[C@H](CCCN)NC(=O)[C@H](C(C)C)NC(=O)[C@H](Cc2ccc(-c3ccccc3)cc2)NC1=O [Compound 1258] ({CH2CO}-Y(Carboxymethyl)[4Pal]DWL[Bip]V[Orn][dL][Dab]LVSCG-NH2; thioether N-14) |
| 14.6 | CC(C)C[C@H]1NC(=O)[C@H](CCCN)NC(=O)[C@H](CCCNC(N)=O)NC(=O)[C@H](Cc2ccc(-c3ccccc3)cc2)NC(=O)[C@H](C(C)C)NC(=O)[C@H](Cc2c[nH]c3ccccc23)NC(=O)[C@H](CC(=O)O)NC(=O)[C@H](Cc2ccc(O)cc2)NC(=O)[C@H](Cc2ccc(OCC(=O)O)cc2)NC(=O)CSC[C@@H](C(=O)N[C@@H](C)C(N)=O)NC(=O)[C@H]([C@@H](C)O)NC(=O)[C@H](C(C)C)NC(=O)[C@H](CC2CCCCC2)NC(=O)[C@H](CCN)NC1=O [Compound 1165] |
